Results from ChEMBL document CHEMBL1201862, “PubChem BioAssay data set” (2004).
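Briefly, cells in 96-well plates were exposed to five compound concentrations for 48 h, and endpoints were estimated by linear interpolation. GI50 is the concentration that inhibits growth by half.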 Activity calls are given as the source filed them. Rule as the data show it: active = GI50 up to about 1.1 µM and inactive = higher.

Legend:
Assay in all cases: DTP human tumour cell line panel, 48 h
RXF 393 = tested on: RXF 393
SN12C = tested on: SN12C
EKVX = tested on: EKVX
CCRF-CEM = tested on: CCRF-CEM
NCI-H460 = tested on: NCI-H460
NCI-H522 = tested on: NCI-H522
K562 = tested on: K562
SF-539 = tested on: SF-539
A549 = tested on: A549
HCC 2998 = tested on: HCC 2998
RPMI-8226 = tested on: RPMI-8226
OVCAR-5 = tested on: OVCAR-5
SF-295 = tested on: SF-295
SNB-75 = tested on: SNB-75
786-0 = tested on: 786-0
T47D = tested on: T47D
IGROV-1 = tested on: IGROV-1
PC-3 = tested on: PC-3
HL-60 = tested on: HL-60
OVCAR-3 = tested on: OVCAR-3
SK-OV-3 = tested on: SK-OV-3
SNB-19 = tested on: SNB-19
OVCAR-8 = tested on: OVCAR-8
SR = tested on: SR
MOLT-4 = tested on: MOLT-4
Hs-578T = tested on: Hs-578T
SF-268 = tested on: SF-268
HCT-15 = tested on: HCT-15
SK-MEL-2 = tested on: SK-MEL-2
TK-10 = tested on: TK-10
A498 = tested on: A498
UACC-257 = tested on: UACC-257
COLO 205 = tested on: COLO 205
UACC-62 = tested on: UACC-62
U-251 = tested on: U-251
BT-549 = tested on: BT-549
OVCAR-4 = tested on: OVCAR-4
MCF7 = tested on: MCF7
ACHN = tested on: ACHN
SW-620 = tested on: SW-620
UO-31 = tested on: UO-31
MDA-MB-435 = tested on: MDA-MB-435
SK-MEL-28 = tested on: SK-MEL-28
HT-29 = tested on: HT-29
KM12 = tested on: KM12
HOP-92 = tested on: HOP-92
HCT-116 = tested on: HCT-116
DU-145 = tested on: DU-145
SK-MEL-5 = tested on: SK-MEL-5
M14 = tested on: M14
NCI-H226 = tested on: NCI-H226
HOP-62 = tested on: HOP-62
NCI-H23 = tested on: NCI-H23
NCI/ADR-RES = tested on: NCI/ADR-RES
MDA-MB-231 = tested on: MDA-MB-231
MDA-N = tested on: MDA-N
LOX IMVI = tested on: LOX IMVI
Malme-3M = tested on: Malme-3M
CAKI-1 = tested on: CAKI-1

O=C(NCCCCNCCCNC(=O)OCc1ccccc1)OCc1ccccc1
GI50 (RXF 393): 16.5 µM (inactive) | GI50 (SN12C): 85.3 µM (inactive) | GI50 (EKVX): 51.6 µM (inactive) | GI50 (CCRF-CEM): 31 µM (inactive) | GI50 (NCI-H460): 23.6 µM (inactive) | GI50 (NCI-H522): 21.2 µM (inactive) | GI50 (K562): 30.8 µM (inactive) | GI50 (SF-539): 21.3 µM (inactive) | GI50 (A549): 64.4 µM (inactive) | GI50 (HCC 2998): 19.5 µM (inactive) | GI50 (RPMI-8226): 39 µM (inactive) | GI50 (OVCAR-5): 85.1 µM (inactive) | GI50 (SF-295): 21.8 µM (inactive) | GI50 (SNB-75): 25.5 µM (inactive) | GI50 (786-0): 21.9 µM (inactive) | GI50 (T47D): 18.9 µM (inactive) | GI50 (IGROV-1): 22.1 µM (inactive) | GI50 (PC-3): 27.2 µM (inactive) | GI50 (HL-60): 20.3 µM (inactive) | GI50 (OVCAR-3): > 100 µM (inactive) | GI50 (SK-OV-3): 69.7 µM (inactive) | GI50 (SNB-19): 37.8 µM (inactive) | GI50 (OVCAR-8): 26.8 µM (inactive) | GI50 (SR): 23.9 µM (inactive) | GI50 (MOLT-4): 26.9 µM (inactive) | GI50 (Hs-578T): 31.8 µM (inactive) | GI50 (SF-268): 69.5 µM (inactive) | GI50 (HCT-15): 61.5 µM | GI50 (SK-MEL-2): 21 µM (inactive) | GI50 (TK-10): 43.7 µM (inactive) | GI50 (A498): 17.4 µM (inactive) | GI50 (UACC-257): 19.2 µM (inactive) | GI50 (COLO 205): 16.9 µM (inactive) | GI50 (UACC-62): 17.9 µM (inactive) | GI50 (U-251): 34.5 µM (inactive) | GI50 (BT-549): 55 µM (inactive) | GI50 (OVCAR-4): 80.2 µM (inactive) | GI50 (MCF7): 24.5 µM (inactive) | GI50 (ACHN): 43.4 µM (inactive) | GI50 (SW-620): 61.7 µM (inactive) | GI50 (UO-31): 24.2 µM (inactive) | GI50 (MDA-MB-435): 33.4 µM (inactive) | GI50 (SK-MEL-28): 18.4 µM (inactive) | GI50 (HT-29): 18 µM (inactive) | GI50 (KM12): 32 µM (inactive) | GI50 (HOP-92): 22.7 µM (inactive) | GI50 (HCT-116): 24.5 µM (inactive) | GI50 (DU-145): 73.6 µM (inactive) | GI50 (SK-MEL-5): 16.9 µM (inactive) | GI50 (M14): 18.3 µM (inactive) | GI50 (NCI-H226): 32 µM (inactive) | GI50 (HOP-62): 27.8 µM (inactive) | GI50 (NCI-H23): > 100 µM (inactive) | GI50 (NCI/ADR-RES): 36.4 µM (inactive)

Cc1c(F)c(N)c2c(=O)cc(-c3ccc(NC(=O)[C@@H](N)CCCCN)c(F)c3)oc2c1F
GI50 (RXF 393): 18.2 µM (inactive) | GI50 (SN12C): 14.9 µM (inactive) | GI50 (EKVX): 6.68 µM (inactive) | GI50 (CCRF-CEM): 3.52 µM (inactive) | GI50 (NCI-H460): 0.101 µM (active) | GI50 (SF-295): 15.6 µM (inactive) | GI50 (SNB-75): 4.68 µM (inactive) | GI50 (786-0): 9.31 µM (inactive) | GI50 (T47D): 0.159 µM (active) | GI50 (IGROV-1): 0.0418 µM (active) | GI50 (PC-3): 15.3 µM (inactive) | GI50 (SK-OV-3): 15.1 µM (inactive) | GI50 (SNB-19): 18.4 µM (inactive) | GI50 (OVCAR-8): 11 µM (inactive) | GI50 (SF-268): 11.9 µM (inactive) | GI50 (HCT-15): 11.2 µM | GI50 (SK-MEL-2): 21.3 µM (inactive) | GI50 (TK-10): 0.134 µM (active) | GI50 (A498): 0.0537 µM (active) | GI50 (UACC-257): 0.242 µM (active) | GI50 (BT-549): 24.4 µM (inactive) | GI50 (MCF7): 0.033 µM (active) | GI50 (ACHN): 12.9 µM (inactive) | GI50 (UO-31): 7.83 µM (inactive) | GI50 (MDA-MB-435): 7.21 µM (inactive) | GI50 (SK-MEL-28): 13.2 µM (inactive) | GI50 (HT-29): 13.1 µM (inactive) | GI50 (KM12): 9.33 µM (inactive) | GI50 (HOP-92): 18.6 µM (inactive) | GI50 (HCT-116): 2.88 µM (inactive) | GI50 (DU-145): 13.7 µM (inactive) | GI50 (MDA-MB-231): 13.2 µM (inactive) | GI50 (MDA-N): 7.26 µM (inactive) | GI50 (LOX IMVI): 8.83 µM (inactive) | GI50 (M14): 16.4 µM (inactive) | GI50 (HOP-62): 7.59 µM (inactive) | GI50 (NCI/ADR-RES): 21.4 µM (inactive)

CC(=O)/C(=C\n1c(=S)[nH]c2ccc([N+](=O)[O-])cc21)C(=O)Nc1ccccc1C
GI50 (RXF 393): > 100 µM (inactive) | GI50 (SN12C): > 100 µM (inactive) | GI50 (EKVX): > 100 µM (inactive) | GI50 (CCRF-CEM): > 100 µM (inactive) | GI50 (NCI-H460): > 100 µM (inactive) | GI50 (NCI-H522): > 100 µM (inactive) | GI50 (K562): > 100 µM (inactive) | GI50 (SF-539): 8.26 µM (inactive) | GI50 (A549): > 100 µM (inactive) | GI50 (HCC 2998): > 100 µM (inactive) | GI50 (RPMI-8226): > 100 µM (inactive) | GI50 (OVCAR-5): > 100 µM (inactive) | GI50 (SF-295): > 100 µM (inactive) | GI50 (786-0): > 100 µM (inactive) | GI50 (T47D): > 100 µM (inactive) | GI50 (IGROV-1): > 100 µM (inactive) | GI50 (PC-3): > 100 µM (inactive) | GI50 (HL-60): > 100 µM (inactive) | GI50 (OVCAR-3): > 100 µM (inactive) | GI50 (SK-OV-3): > 100 µM (inactive) | GI50 (OVCAR-8): > 100 µM (inactive) | GI50 (SR): 88.5 µM (inactive) | GI50 (MOLT-4): > 100 µM (inactive) | GI50 (HCT-15): > 100 µM | GI50 (SK-MEL-2): > 100 µM (inactive) | GI50 (A498): 96.8 µM (inactive) | GI50 (UACC-257): > 100 µM (inactive) | GI50 (COLO 205): > 100 µM (inactive) | GI50 (UACC-62): > 100 µM (inactive) | GI50 (U-251): > 100 µM (inactive) | GI50 (Malme-3M): > 100 µM (inactive) | GI50 (BT-549): 33.3 µM (inactive) | GI50 (OVCAR-4): > 100 µM (inactive) | GI50 (MCF7): > 100 µM (inactive) | GI50 (ACHN): > 100 µM (inactive) | GI50 (SW-620): > 100 µM (inactive) | GI50 (MDA-MB-435): > 100 µM (inactive) | GI50 (SK-MEL-28): > 100 µM (inactive) | GI50 (HT-29): > 100 µM (inactive) | GI50 (HCT-116): > 100 µM (inactive) | GI50 (DU-145): > 100 µM (inactive) | GI50 (MDA-MB-231): > 100 µM (inactive) | GI50 (MDA-N): > 100 µM (inactive) | GI50 (SK-MEL-5): 78.3 µM (inactive) | GI50 (LOX IMVI): > 100 µM (inactive) | GI50 (M14): > 100 µM (inactive) | GI50 (NCI-H226): > 100 µM (inactive) | GI50 (HOP-62): > 100 µM (inactive) | GI50 (NCI-H23): > 100 µM (inactive) | GI50 (CAKI-1): > 100 µM (inactive) | GI50 (NCI/ADR-RES): > 100 µM (inactive)
